How the values were obtained:
[1] = test system: Male Sprague-Dawley rats; assay: Example 1: prostate size and hormone secretion in intact male rats injected sc with racemic equol; type: in vivo, rat; settings: intact males, 0.25 mg/kg sc 1/day for 4 days, vs control
Procedure: Male Sprague-Dawley rats (400-500 grams) are obtained from Charles Rivers Laboratories (Wilmington, Mass., USA). Rats are caged in pairs and maintained on a 12-hour dark 12-hour light schedule (lights on at 0700 h) with ad libitum access to food and water.
One week following arrival, animals are given subcutaneous (sc) injections (1/day for 4 days) of either dimethylsulfoxide (DMSO) (vehicle control) or racemic equol (0.25 mg/kg). Eighteen hours after the final injection, animals are killed via decapitation and trunk blood and prostate are collected for analysis.

[2] = test system: Long-Evans rats, male offspring; assay: Example 19: elevated plus maze of adult male offspring after pre- and early postnatal treatment; type: in vivo, rat; settings: offspring tested at about 90 days
Procedure: Pregnant Long-Evans rats were treated via daily subcutaneous injections from gestational day 14 through 20 and during lactation from postnatal day 2 through 25 with: 1) control-DMSO vehicle or, 2) genistein@ 3 mg/day or 3) equol@ 3 mg/day according to the treatment groups. All animals were fed a phytoestrogen-low diet throughout these studies (10 ppm isoflavones). There were no significant differences in maternal body weights just before birth among the treatment groups. […] The maternal and male offspring genistein and equol levels @ 25 days post birth) paralleled that of the treatments administered.
At approximately 90 days of age the male offspring were tested by treatments (control, genistein and equol) in the EPM that was video-taped for 3 minutes and later recorded for the number of entries into—and the percentage of total time spent—on the open arms, as previously described. […] Equol time intervals were 2-fold greater than genistein values and genistein levels were approximately 9-fold greater than controls.

[3] = test system: intact males; assay: Example 2: tissue weights from intact males given sc injections of racemic equol; type: in vivo, rat; settings: sc once/day for 7 days
[4] = test system: GDX males; assay: Examples 5 and 6: gonadectomized (GDX) male rats treated with DHTP, equol or both; histology; type: in vivo, rat
[5] = test system: Male Long-Evans rats; assay: Example 13: racemic equol injections in male rats on Phyto-Free diet; type: in vivo, rat
Text: Prior to initiation of a Phyto-Free diet period Male Long-Evans rats are fed a Phyto-200 diet, as described in previous examples. The rats are placed on a diet containing the Phyto-Free diet at approximately 52 days of age and randomly assigned to three groups. Baseline body weights after 14 days and 21 days on the Phyto-Free diet for all rats are similar, shown in FIGS. 43 and 44, respectively. Beginning at 73 days of age, rats receive daily subcutaneous 0.1 cc injections of vehicle (peanut oil), 1 milligram of a racemic mixture of equol in vehicle (0.83 mg/kg body weight/day), or 5 milligrams of a racemic mixture of equol in vehicle (4.2 mg/kg body weight/day) once every three days.

[6] = test system: adult Long-Evans male rats; assay: Example 18: elevated plus maze, body weight and hypothalamic volumes in adult male rats treated with equol; type: in vivo, rat
Text: In this study, anxiety-related behaviors were examined along with hormone levels in adult Long-Evans male rats exposed to equol. A known and accepted animal behavioral test for psychiatric disorders in humans, such as elevated plus maze (EPM) was used for this purpose (P. Willner, in Behavioral Models in Psychopharmacology: Theoretical, Industrial and Clinical Perspectives, New York, Cambridge Univ. Press, 1991; M. A. Geyer & A. Markou, in Psychopharmacology: The Fourth Generation of Progress, NY, Raven Press, pp. 787-798, 1995; and R. Hitzemann, Alcohol & Res. Health, 24: 149-158, 2000).
The EPM test relies on the inherent conflict between exploration of a novel environment and avoidance of its aversive features. Typically, animals spend little time and make few entries into the open arms (new environment) compared to the closed arms of the maze (secure environment). For example, an anti-anxiety agent or drug would increase the number of entries into and total time spent in the open arms of the maze.
Male rats 50 days of age were given a diet low in phytoestrogens (10 ppm of isoflavones) and remained on this diet until 215 days of age. At 150 days of age the rats were age and body weight matched and then divided into control or equol treatment groups. Starting at 190 days, the male rats received daily subcutaneous (0.1 cc) injections of control vehicle (DMSO) or equol (2.5 mg/Kg) for 25 consecutive days.
After 15 days on the treatments the animals were tested in the EPM that was video-taped for 3 minutes and later recorded for the number of entries into—and the percentage of total time spent—on the open arms via AnyMaze® computer software.
At 215 days of age the animals were sacrificed and body/prostate weights, serum hormone and isoflavone levels were determined along with determining the volume of hypothalamic regions that are sensitive to hormones.
The brains were processed via standard staining and analyzed via Bioquant® for morphometric SDN and AVPV parameters by treatments.

[7] = Bioavailability of R-equol after oral administration to a healthy adult; type: in vivo, human
Procedure: 20 mg of pure R-equol was administered orally to a healthy adult after an overnight fast. Blood samples were collected at timed intervals over the next 24 hours and the plasma concentration of equol was determined by isotope dilution gas chromatography-mass spectrometry with selected ion monitoring. Rapid appearance of equol is observed in the plasma with peak concentrations observed after 8 hours. The terminal elimination half-life of R-equol was approximately 8 hours.

[8] = 25 consecutive days, n = 4, not significant vs control
[9] = after 15 days of treatment, vs controls

With `Oc1ccc(C2COc3cc(O)ccc3C2)cc1` (racemic) [equol, 7-hydroxy-3(4′hydroxyphenyl)-chroman] the “luteinizing hormone (LH)” value [1] was “significantly increased”, the prostate weight [1] was “significant reduction” and the “entries into the open arms vs controls” value ([2]; 3 mg/day sc to dams) was “significantly greater”. For the same compound, the “time in the open arms vs controls” value ([2]; 3 mg/day sc to dams) was “significantly greater”, the “open arm time intervals, fold greater than genistein values” [2] was 2 fold and the “Body (g)” value [3] was 418.0 (±7.52) g. The “Epididymis (g)” value [3] was 1.59 (±0.06) g, the “Pituitary (g)” value [3] was 0.014 (±0.002) g and the “Prostate (g)” value [3] was 0.38 (±0.06) g. For the same compound, the “Testes (g)” value [3] was 3.48 (±0.08) g, the “epididymal histology (H&E)” value ([4]; intact males vs control males) was “overall smaller ducts” and the “prostate histology (H&E)” value ([4]; intact males vs intact control) was “involution and consist of more closely spaced, atrophic glands”. The “reduction in adipose tissue mass” value ([5]; 101-day-old rats, vs controls) was “approximately 33%”, the testes weight ([5]; 28 days after start of injections) was “no significant alterations” and the “body weights and average body weight gains” value ([5]; at 80 and 88 days of age, 1 or 5 mg racemic equol sc, vs controls) was “not significantly different from controls”. For the same compound, the “average body weight gains” value ([5]; at 95 and 101 days, vs control) was “significantly reduced”, the “AVPV Volumes” value [6, 8] was 10.59 ± 1.6 mm^3 × 10^−3 and the “SDN Volumes” value [6, 8] was 46.3 ± 3.1 mm^3 × 10^−3. For the same compound, the “number of entries into the open arms of the EPM” value [6, 9] was “significantly greater”, the “time spent on the open arms of the EPM” value [6, 9] was “significantly greater” and the body weights ([6]; equol 2.5 mg/Kg sc daily for 25 days, vs control) was “significantly decreased”. For the same compound, the serum equol levels ([6]; equol-treated animals) was “equivalent to consuming a phytoestrogen-rich soy diet”.
For `Oc1ccc([C@@H]2COc3cc(O)ccc3C2)cc1` [R-equol], the bioavailability ([7]; 20 mg orally) was “extremely bioavailable”, the “time of peak plasma concentrations” value ([7]; 20 mg orally after overnight fast, healthy adult) was 8 h and the “stability of the enantiomer in vivo (racemization, biotransformation)” value ([7]; equol in plasma by ESI-MS after 20 mg orally) was “does not undergo any racemization or further biotransformation in the intestine”. It also gave a half-life ([7]; human, plasma, po, 20 mg orally, healthy adult, read-out: terminal elimination half-life (converted)) of ~480 min.

— patent US20070043108A1, “Use of equol for ameliorating or preventing neuropsychiatric and neurodegenerative diseases or disorders” (priority 2002, published 2007)
